The results in this text go back to patent publication US20240270821A1, “GIP/GLP1/GCG TRI-RECEPTOR AGONISTS AND USES THEREOF” (priority 2023, published 2024).

The EC50 is the concentration giving half of the maximal effect.

Read-outs that look alike come from different tables or passages of the source. Starred links: 1 amine or outer side, 2 acyl side, 3 side chain; linkers in the order of their positions; H or OH if unused. Non-standard residues stand in square brackets, D forms with d. Residues, ends and D or L forms follow the SMILES beside them. Groups on a side chain read outwards from the residue. No end group written: not given here. *: point of attachment. C20 diacid = O=C(O)CCCCCCCCCCCCCCCCCCC(=O)*; C18 diacid = O=C(O)CCCCCCCCCCCCCCCCC(=O)*; αMePhe(2-F) = C[C@](N)(Cc1ccccc1F)C(=O)O; γGlu = O=C(O)[C@H](CCC(=O)[*:2])N[*:1]; αMe4Pal = C[C@](N)(Cc1ccncc1)C(=O)O; αMeY = C[C@](N)(Cc1ccc(O)cc1)C(=O)O; 4Pal = N[C@@H](Cc1ccncc1)C(=O)O; αMeL = CC(C)C[C@](C)(N)C(=O)O; αMeS = C[C@](N)(CO)C(=O)O; Orn = NCCC[C@H](N)C(=O)O; AEEA = NCCOCCOCC(=O)O; Aib = CC(C)(N)C(=O)O

Holding throughout (format): cell-based
The target in experiment [1] is T1, hGIPR (Homo sapiens, UniProt P48546).
T1 sequence (P48546 22-466): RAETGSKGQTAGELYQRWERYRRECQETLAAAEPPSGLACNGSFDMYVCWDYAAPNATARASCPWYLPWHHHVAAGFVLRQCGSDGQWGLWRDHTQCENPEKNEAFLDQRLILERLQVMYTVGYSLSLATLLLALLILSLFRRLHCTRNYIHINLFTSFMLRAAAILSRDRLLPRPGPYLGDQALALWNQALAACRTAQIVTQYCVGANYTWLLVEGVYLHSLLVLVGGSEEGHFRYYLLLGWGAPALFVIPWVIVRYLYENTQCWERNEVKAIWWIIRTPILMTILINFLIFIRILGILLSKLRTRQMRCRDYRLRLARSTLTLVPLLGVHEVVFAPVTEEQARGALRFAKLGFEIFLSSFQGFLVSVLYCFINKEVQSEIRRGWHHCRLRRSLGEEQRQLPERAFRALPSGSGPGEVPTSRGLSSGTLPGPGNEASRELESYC
Put plainly: Functional cAMP activity in the presence of 1% HSA. Conditions: read-out: cAMP Rel EC50, hGIPR.

Experiment [2] addresses T2, hGLP-1R (Homo sapiens, UniProt P43220). Put plainly: Functional cAMP activity in the presence of 1% HSA. Conditions: read-out: cAMP Rel EC50, hGLP-1R.
Another experiment addresses human GcgR (Homo sapiens, UniProt P47871). Put plainly: Functional cAMP activity in the presence of 1% HSA. The conditions noted are these: read-out: cAMP Rel EC50, hGcgR.
In experiment [3] the target is T1, hGIPR. Put plainly: Functional cAMP activation in the presence of 0.1% casein (no HSA). The conditions noted are these: read-out: Relative cAMP EC50, hGIPR.
The target of experiment [4] is T2, hGLP-1R. The experiment is described as above. The conditions noted are these: read-out: Relative cAMP EC50, hGLP-1R.
Another experiment deals with hGcgR (Homo sapiens, UniProt P47871). The description is as above. Conditions: read-out: Relative cAMP EC50, hGcgR.
Sequence of hGcgR (P47871 26-477): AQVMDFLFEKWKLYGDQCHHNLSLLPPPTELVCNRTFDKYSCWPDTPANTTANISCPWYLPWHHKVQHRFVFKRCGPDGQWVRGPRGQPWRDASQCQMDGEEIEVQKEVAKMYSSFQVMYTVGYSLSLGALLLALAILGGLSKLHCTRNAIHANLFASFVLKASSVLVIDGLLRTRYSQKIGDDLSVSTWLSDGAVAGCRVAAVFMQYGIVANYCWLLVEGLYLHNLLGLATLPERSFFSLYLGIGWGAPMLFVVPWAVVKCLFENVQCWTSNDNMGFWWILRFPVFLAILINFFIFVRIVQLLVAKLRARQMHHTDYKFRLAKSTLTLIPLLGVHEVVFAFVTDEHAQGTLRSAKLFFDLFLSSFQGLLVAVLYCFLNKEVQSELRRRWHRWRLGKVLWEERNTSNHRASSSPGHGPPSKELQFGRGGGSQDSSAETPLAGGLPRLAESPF
Setting [5] is: HEK-293 clonal cell line, in the presence of 1% HSA, geometric mean of relative EC50.
[6] abbreviates: in the presence of 0.1% casein (no HSA), geometric mean.
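Throughout, for Relative cAMP EC50, hGIPR: intracellular cAMP rise after 30 min at 37 °C read by HTRF against a standard curve, scaled between buffer alone (0%) and top control ligand concentration (100%), four-parameter fit.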
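Throughout, for Relative cAMP EC50, hGLP-1R: intracellular cAMP rise after 30 min at 37 °C read by HTRF, normalized between buffer only (0%) and maximal control ligand (100%), four-parameter variable-slope fit.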
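Throughout, for Relative cAMP EC50, hGcgR: intracellular cAMP rise after 30 min at 37 °C, read by HTRF against a cAMP standard curve, scaled from buffer only (0%) to maximal control ligand response (100%).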

Sequence of human GcgR (P47871 26-477): as above
T2 sequence (P43220 24-463): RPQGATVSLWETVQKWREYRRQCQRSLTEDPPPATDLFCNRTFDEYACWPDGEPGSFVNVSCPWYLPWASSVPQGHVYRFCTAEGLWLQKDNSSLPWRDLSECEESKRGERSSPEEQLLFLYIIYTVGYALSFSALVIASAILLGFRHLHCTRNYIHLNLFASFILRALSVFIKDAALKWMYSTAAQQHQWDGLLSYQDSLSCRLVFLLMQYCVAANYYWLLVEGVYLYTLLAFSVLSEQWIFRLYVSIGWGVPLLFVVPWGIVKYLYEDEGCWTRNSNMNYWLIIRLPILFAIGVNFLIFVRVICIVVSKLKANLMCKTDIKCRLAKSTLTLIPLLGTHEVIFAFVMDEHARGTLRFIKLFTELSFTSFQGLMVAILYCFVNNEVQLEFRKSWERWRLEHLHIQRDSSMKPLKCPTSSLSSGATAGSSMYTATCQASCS

For “H-Y[Aib]QGTFTSDFS[Orn][αMeL]LD[Orn]K([γGlu-γGlu-C18 diacid])AQ[Aib]AFIE[αMe4Pal]LLEGGPSSGAPPPGGSEE-NH2 [Example 1050]”, the EC50 stood at 68.5 nM at hGIPR [1] (setting [5]); 1240 nM on hGLP-1R [2] (setting [5]); 2040 nM at human GcgR (setting [5]); 0.152 nM on hGIPR [3] (setting [6]); 7.65 nM on hGLP-1R [4] (setting [6]); 6.8 nM on hGcgR (setting [6]).
For the compound “H-Y[Aib]QGTFTSDFS[Orn][αMeL]LDKK([AEEA-γGlu-C18 diacid])AQ[Aib]AFIEWLLEGGHSSGAPPPSGS-NH2 [Example 170]”, the EC50 on hGIPR [1] is 43.5 nM; at hGLP-1R [2], 361 nM; at human GcgR it was 1800 nM; on hGIPR [3] (setting [6]), 0.401 nM; on hGLP-1R [4] (setting [6]) it was 4.11 nM; on hGcgR (setting [6]), 5.29 nM.
As to “H-Y[Aib]QGTFTSDFS[Orn][αMeL]LDKK([γGlu-γGlu-C18 diacid])AQ[Aib]AFIEYLLEGGPSS[Aib]APPPGGS-NH2 [Example 770]”, the EC50 at hGIPR [1] worked out at 18.2 nM; on hGLP-1R [2], 240 nM; on human GcgR it was 390 nM; on hGIPR [3] it was 0.244 nM; at hGLP-1R [4] it was 3.91 nM; on hGcgR, 5.37 nM.
Turning to “H-Y[Aib]QGTFTSD[4Pal]SK[αMeL]LDKK([AEEA-γGlu-C18 diacid])AQ[αMe4Pal]AFIE[αMe4Pal]LIE[Aib]GPSSGAPPPSGS-NH2 [Example 916]”, the EC50 amounted to 4.78 nM on hGIPR [1]; 166 nM at hGLP-1R [2]; 158 nM on human GcgR; 0.0715 nM on hGIPR [3] (setting [6]); 1.38 nM at hGLP-1R [4] (setting [6]); 1.09 nM at hGcgR (setting [6]).
As to “H-Y[Aib]QGTFTSD[4Pal]S[Orn][αMeL]LD[Orn]K([γGlu-γGlu-C18 diacid])AQ[αMe4Pal]QFIEYLIAGGPSSGAPPPSGSEE-NH2 [Example 1000]”, the EC50 came to 15.5 nM at hGIPR [1]; 279 nM at hGLP-1R [2]; 501 nM at human GcgR; 0.176 nM on hGIPR [3] (setting [6]); 3.55 nM at hGLP-1R [4] (setting [6]); 4.62 nM on hGcgR (setting [6]).
On to `CC[C@H](C)[C@H](NC(=O)[C@H](Cc1ccccc1)NC(=O)[C@H](C)NC(=O)C(C)(C)NC(=O)[C@H](CCC(N)=O)NC(=O)[C@H](C)NC(=O)[C@H](CCCCNC(=O)COCCOCCNC(=O)CC[C@H](NC(=O)CCCCCCCCCCCCCCCCC(=O)O)C(=O)O)NC(=O)[C@H](CCCCN)NC(=O)[C@H](CC(=O)O)NC(=O)[C@H](CC(C)C)NC(=O)[C@](C)(CC(C)C)NC(=O)[C@@H](NC(=O)[C@H](CO)NC(=O)[C@H](Cc1ccc(O)cc1)NC(=O)[C@H](CC(=O)O)NC(=O)[C@H](CO)NC(=O)[C@@H](NC(=O)[C@](C)(Cc1ccccc1F)NC(=O)[C@@H](NC(=O)CNC(=O)[C@H](CCC(N)=O)NC(=O)C(C)(C)NC(=O)[C@@H](N)Cc1ccc(O)cc1)[C@@H](C)O)[C@@H](C)O)[C@@H](C)CC)C(=O)N[C@@H](CCC(=O)O)C(=O)N[C@@H](Cc1ccc(O)cc1)C(=O)N[C@@H](CC(C)C)C(=O)N[C@@H](CCC(=O)O)C(=O)N[C@@H](CCC(=O)O)C(=O)NCC(=O)NCC(=O)N1CCC[C@H]1C(=O)N[C@@H](CO)C(=O)N[C@@H](CO)C(=O)NCC(=O)N[C@@H](C)C(=O)N1CCC[C@H]1C(=O)N1CCC[C@H]1C(=O)N1CCC[C@H]1C(=O)N[C@@H](CO)C(=O)N[C@@H](CCC(=O)O)C(N)=O` [Example 424] (H-Y[Aib]QGT[αMePhe(2-F)]TSDYSI[αMeL]LDKK([AEEA-γGlu-C18 diacid])AQ[Aib]AFIEYLEEGGPSSGAPPPSE-NH2), for which the EC50 was 3.21 nM at hGIPR [1]; 29.5 nM at hGLP-1R [2]; 443 nM at human GcgR; 0.0154 nM on hGIPR [3]; 0.318 nM on hGLP-1R [4]; 3.12 nM on hGcgR.
Consider “H-Y[Aib]QGTFTSDFS[Orn][αMeL]LDKK([AEEA-γGlu-C18 diacid])AQ[Aib]AFIEYLLAGGPSSGAPPPSGSQ-OH [Example 88]”, for which the EC50 on hGIPR [1] amounted to 24.7 nM; on hGLP-1R [2], 363 nM; at human GcgR, 915 nM; on hGIPR [3] (setting [6]), 0.177 nM; at hGLP-1R [4] (setting [6]) it was 3.45 nM; at hGcgR (setting [6]), 7.48 nM.
Consider “H-Y[Aib]QGT[αMePhe(2-F)]TSD[4Pal][αMeS]I[αMeL]LD[Orn]K([AEEA-γGlu-γGlu-C18 diacid])AQ[αMe4Pal]EFI[dE][αMeY]LIEGGPSSGAPPPSGSE-NH2 [Example 1178]”, for which the EC50 at hGIPR [1] was found to be 0.544 nM; at hGLP-1R [2] it was 39 nM; at human GcgR it was 270 nM; on hGIPR [3] (setting [6]) it was 0.00913 nM; on hGLP-1R [4] (setting [6]), 0.437 nM; on hGcgR (setting [6]), 3.08 nM.
As for “Y[Aib]QGT[αMePhe(2-F)]TSD[4Pal][αMeS]I[αMeL]LD[Orn]K([γGlu-γGlu-C18 diacid])AQ[Aib][Orn]FI[dE][αMeY]LQEGGPSSGEPPPEGGEE-NH2 [Example 586]”, the EC50 on hGIPR [1] worked out at 2.46 nM; at hGLP-1R [2], 29.1 nM; on human GcgR, 302 nM; at hGIPR [3], 0.0461 nM; at hGLP-1R [4], 0.593 nM; on hGcgR, 4.58 nM.
As to “H-Y[Aib]QGT[αMePhe(2-F)]TSD[4Pal][αMeS]I[αMeL]LD[Orn]K([AEEA-γGlu-γGlu-C18 diacid])AQ[αMe4Pal]EFI[dE][αMeY]LIEGGPSSGAPPPSGE-NH2 [Example 1176]”, the EC50 at hGIPR [1] worked out at 0.462 nM; on hGLP-1R [2], 43.8 nM; on human GcgR, 229 nM; on hGIPR [3] (setting [6]) it was 0.00717 nM; at hGLP-1R [4] (setting [6]) it was 0.344 nM; on hGcgR (setting [6]), 1.8 nM.
With “H-Y[Aib]QGTFTSD[4Pal]S[Orn][αMeL]LD[Orn]K([γGlu-γGlu-C18 diacid])AQ[αMe4Pal]AFIEYLIAGGPSSGEPPPSGE-NH2 [Example 983]”, the EC50 on hGIPR [1] stood at 19.4 nM; on hGLP-1R [2], 207 nM; on human GcgR it was 576 nM; on hGIPR [3] (setting [6]), 0.289 nM; on hGLP-1R [4] (setting [6]), 2.35 nM; at hGcgR (setting [6]) it was 4.75 nM.
“H-Y[Aib]QGTFTSD[4Pal][αMeS]Q[αMeL]LD[Orn]K([dE-γGlu-C18 diacid])AQ[αMe4Pal]QFIQ[αMeY]LIAGGPSSGEPPPSGGGE-NH2 [Example 1133]”: the EC50 stood at 4.24 nM at hGIPR [1]; 47.8 nM at hGLP-1R [2]; 216 nM at human GcgR; 0.0719 nM at hGIPR [3] (setting [6]); 0.768 nM at hGLP-1R [4] (setting [6]); 2.95 nM at hGcgR (setting [6]).
Take “H-Y[Aib]QGTFTSDYSI[αMeL]LDKIAAK([AEEA-AEEA-γGlu-C20 diacid])QFVEYLIAGGPSSGEPPPSEG-NH2 [Example 312]”: the EC50 at hGIPR [1] stood at 97.7 nM; on hGLP-1R [2], 589 nM; on human GcgR it was 4070 nM; at hGIPR [3] (setting [6]) it was 0.504 nM; on hGLP-1R [4] (setting [6]), 2.66 nM; on hGcgR (setting [6]), 7.5 nM.
For “H-Y[Aib]QGTFTSD[4Pal]S[Orn][αMeL]LDKK([γGlu-γGlu-C18 diacid])AQ[αMe4Pal]AFIE[αMe4Pal]LIEGGPSSGAPPPSGSEE-NH2 [Example 958]”, the EC50 on hGIPR [1] was determined as 27.1 nM; at hGLP-1R [2], 850 nM; on human GcgR, 340 nM; on hGIPR [3] (setting [6]) it was 0.343 nM; on hGLP-1R [4] (setting [6]) it was 9.51 nM; on hGcgR (setting [6]) it was 3.17 nM.
As to “H-Y[Aib]QGTFTSD[4Pal]SQ[αMeL]LDKK([AEEA-γGlu-C18 diacid])AQ[Aib]AFIE[αMeY]LLEGGPSSGAPPPSGS-NH2 [Example 910]”, the EC50 at hGIPR [1] is 25.7 nM; at hGLP-1R [2] it was 239 nM; at human GcgR, 2640 nM; on hGIPR [3] (setting [6]), 0.111 nM; on hGLP-1R [4] (setting [6]), 1.49 nM; at hGcgR (setting [6]), 9.76 nM.
